In patent US20260365682A1, “MODULATORS OF TNF-ALPHA ACTIVITY” (Forward Therapeutics, Inc., priority 2022, published 2026):
Like-named read-outs stand apart in the source and are kept apart here.

Target: T1, TNF-α (Homo sapiens, UniProt P01375)
T1 construct: purchased R&D 210-TA-020/CF
Experiment: TNF-α Induced HEK Blue Cellular Assay (secreted alkaline phosphatase expression, QUANTI-Blue)
Type: cell-based
Conditions: HEK Blue TNFα reporter cells, TNF-α 100 μg/ml, 24 hrs at 37° C., inhibition of secreted alkaline phosphatase
Outline: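 HEK Blue TNFα reporter cells (10,000/well) in DMEM with 10% FBS received compound ([…] to 0.5 nM final) and TNF-α at […] final for 24 h at 37° C. Secreted alkaline phosphatase read with QUANTI-Blue at 620 nm. IC50 came from a 4-parameter logistic fit after normalising to unstimulated and stimulated DMSO controls.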

T1 sequence (P01375 77-233 limits assumed): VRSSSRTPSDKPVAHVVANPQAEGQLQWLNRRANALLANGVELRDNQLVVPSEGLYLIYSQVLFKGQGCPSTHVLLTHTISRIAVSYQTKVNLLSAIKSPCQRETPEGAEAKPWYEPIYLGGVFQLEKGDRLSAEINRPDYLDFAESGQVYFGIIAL

| Structure (SMILES) | IC50 (read-out: IC50 value) | IC50 (IC50 value) |
| --- | --- | --- |
| [2H]C([2H])([2H])N1C(=O)c2cccc(OC(F)F)c2[C@H]2C[C@@H]1c1nc3ccc(C#CC)cc3n12 [Example 39, (7R,14R)-1-(difluoromethoxy)-6-(methyl-d3)-11-(prop-1-yn-1-yl)-6,7-dihydro-7,14-methanobenzo[f]benzo[4,5]imidazo[1,2-a][1,4]diazocin-5(14H)-one] | < 0.1 µM | – |
| [2H]C([2H])([2H])N1C(=O)c2cccc(OC(F)F)c2[C@H]2C[C@@H]1c1nc3ccc(C#CC(=O)OCC)cc3n12 [Example 40, ethyl 3-((7R,14R)-1-(difluoromethoxy)-6-(methyl-d3)-5-oxo-5,6,7,14-tetrahydro-7,14-methanobenzo[f]benzo[4,5]imidazo[1,2-a][1,4]diazocin-11-yl)propiolate] | – | < 0.1 µM |
| [2H]C([2H])([2H])N1C(=O)c2cccc(OC(F)F)c2[C@H]2C[C@@H]1c1nc3ccc(C#Cc4cnoc4)cc3n12 [Example 41, (7R,14R)-1-(difluoromethoxy)-11-(isoxazol-4-ylethynyl)-6-(methyl-d3)-6,7-dihydro-7,14-methanobenzo[f]benzo[4,5]imidazo[1,2-a][1,4]diazocin-5(14H)-one] | < 0.1 µM | – |
| [2H]C([2H])([2H])N1C(=O)c2cccc(OC(F)F)c2[C@H]2C[C@@H]1c1nc3ccc(C#CCOC)cc3n12 [Example 42, (7R,14R)-1-(difluoromethoxy)-11-(3-methoxyprop-1-yn-1-yl)-6-(methyl-d3)-6,7-dihydro-7,14-methanobenzo[f]benzo[4,5]imidazo[1,2-a][1,4]diazocin-5(14H)-one] | 0.1 to 1 µM | – |
| [2H]C([2H])([2H])N1C(=O)c2cccc(OC(F)F)c2[C@H]2C[C@@H]1c1nc3ccc(C#CCOCC)cc3n12 [Example 43, (7R,14R)-1-(difluoromethoxy)-11-(3-ethoxyprop-1-yn-1-yl)-6-(methyl-d3)-6,7-dihydro-7,14-methanobenzo[f]benzo[4,5]imidazo[1,2-a][1,4]diazocin-5(14H)-one] | < 0.1 µM | – |
| [2H]C([2H])([2H])N1C(=O)c2cccc(OC(F)F)c2[C@H]2C[C@@H]1c1nc3ccc(C#C)cc3n12 [Example 44, (7R,14R)-1-(difluoromethoxy)-11-ethynyl-6-(methyl-d3)-6,7-dihydro-7,14-methanobenzo[f]benzo[4,5]imidazo[1,2-a][1,4]diazocin-5(14H)-one] | < 0.1 µM | – |
| [2H]C([2H])([2H])N1C(=O)c2cccc(OC(F)F)c2[C@H]2C[C@@H]1c1nc3ccc(C#Cc4ncns4)cc3n12 [Example 45, (7R,14R)-11-((1,2,4-thiadiazol-5-yl)ethynyl)-1-(difluoromethoxy)-6-(methyl-d3)-6,7-dihydro-7,14-methanobenzo[f]benzo[4,5]imidazo[1,2-a][1,4]diazocin-5(14H)-one] | < 0.1 µM | – |
| [2H]C([2H])([2H])N1C(=O)c2cccc(OC(F)F)c2[C@H]2C[C@@H]1c1nc3ccc(C#Cc4nnc(CNC)s4)cc3n12 [Example 46, (7R,14R)-1-(difluoromethoxy)-6-(methyl-d3)-11-((5-((methylamino)methyl)-1,3,4-thiadiazol-2-yl)ethynyl)-6,7-dihydro-7,14-methanobenzo[f]benzo[4,5]imidazo[1,2-a][1,4]diazocin-5(14H)-one] | 0.1 to 1 µM | – |
| [2H]C([2H])([2H])N1C(=O)c2cccc(OC(F)F)c2[C@H]2C[C@@H]1c1nc3ccc(C#CC4CCCCN4)cc3n12 (stereo partly drawn) [Example 47, (7R,14R)-1-(difluoromethoxy)-6-(methyl-d3)-11-(piperidin-2-ylethynyl)-6,7-dihydro-7,14-methanobenzo[f]benzo[4,5]imidazo[1,2-a][1,4]diazocin-5(14H)-one] | 10 to 30 µM | – |
| [2H]C([2H])([2H])N1C(=O)c2cccc(OC(F)F)c2[C@H]2C[C@@H]1c1nc3ccc(C#CC4CCOCC4)cc3n12 [Example 48, (7R,14R)-1-(difluoromethoxy)-6-(methyl-d3)-11-((tetrahydro-2H-pyran-4-yl)ethynyl)-6,7-dihydro-7,14-methanobenzo[f]benzo[4,5]imidazo[1,2-a][1,4]diazocin-5(14H)-one] | < 0.1 µM | – |
| [2H]C([2H])([2H])N1C(=O)c2cccc(OC(F)F)c2[C@H]2C[C@@H]1c1nc3ccc(C#CC4CCCCO4)cc3n12 (stereo partly drawn) [Example 49, (7R,14R)-1-(difluoromethoxy)-6-(methyl-d3)-11-((tetrahydro-2H-pyran-2-yl)ethynyl)-6,7-dihydro-7,14-methanobenzo[f]benzo[4,5]imidazo[1,2-a][1,4]diazocin-5(14H)-one] | 0.1 to 1 µM | – |
| [2H]C([2H])([2H])N1C(=O)c2cccc(OC(F)F)c2[C@H]2C[C@@H]1c1nc3ccc(C#C[C@@H](C)N)cc3n12 [Example 50, (7R,14R)-11-((R)-3-aminobut-1-yn-1-yl)-1-(difluoromethoxy)-6-(methyl-d3)-6,7-dihydro-7,14-methanobenzo[f]benzo[4,5]imidazo[1,2-a][1,4]diazocin-5(14H)-one] | < 0.1 µM | – |
| [2H]C([2H])([2H])N1C(=O)c2cccc(OC(F)F)c2[C@H]2C[C@@H]1c1nc3ccc(C#C[C@H](C)N)cc3n12 [Example 51, (7R,14R)-11-((S)-3-aminobut-1-yn-1-yl)-1-(difluoromethoxy)-6-(methyl-d3)-6,7-dihydro-7,14-methanobenzo[f]benzo[4,5]imidazo[1,2-a][1,4]diazocin-5(14H)-one] | < 0.1 µM | – |
| [2H]C([2H])([2H])N1C(=O)c2cccc(OC(F)F)c2[C@H]2C[C@@H]1c1nc3ccc(C#CC4CCNCC4)cc3n12 [Example 52, (7R,14R)-1-(difluoromethoxy)-6-(methyl-d3)-11-(piperidin-4-ylethynyl)-6,7-dihydro-7,14-methanobenzo[f]benzo[4,5]imidazo[1,2-a][1,4]diazocin-5(14H)-one] | < 0.1 µM | – |
| [2H]C([2H])([2H])N1C(=O)c2cccc(OC(F)F)c2[C@H]2C[C@@H]1c1nc3ccc(C#CC4CCCO4)cc3n12 (stereo partly drawn) [Example 53, (7R,14R)-1-(difluoromethoxy)-6-(methyl-d3)-11-((tetrahydrofuran-2-yl)ethynyl)-6,7-dihydro-7,14-methanobenzo[f]benzo[4,5]imidazo[1,2-a][1,4]diazocin-5(14H)-one] | < 0.1 µM | – |
| [2H]C([2H])([2H])N1C(=O)c2cccc(OC(F)F)c2[C@H]2C[C@@H]1c1nc3ccc(C#C[C@@H](C)NCC)cc3n12 [Example 54, (7R,14R)-1-(difluoromethoxy)-11-((R)-3-(ethylamino)but-1-yn-1-yl)-6-(methyl-d3)-6,7-dihydro-7,14-methanobenzo[f]benzo[4,5]imidazo[1,2-a][1,4]diazocin-5(14H)-one] | 10 to 30 µM | – |
| [2H]C([2H])([2H])N1C(=O)c2cccc(OC(F)F)c2[C@H]2C[C@@H]1c1nc3ccc(C#C[C@H](C)NCC)cc3n12 [Example 55, (7R,14R)-1-(difluoromethoxy)-11-((S)-3-(ethylamino)but-1-yn-1-yl)-6-(methyl-d3)-6,7-dihydro-7,14-methanobenzo[f]benzo[4,5]imidazo[1,2-a][1,4]diazocin-5(14H)-one] | 10 to 30 µM | – |
| [2H]C([2H])([2H])N1C(=O)c2cccc(OC(F)F)c2[C@H]2C[C@@H]1c1nc3ccc(C#CCOC(C)(C)C)cc3n12 [Example 56, (7R,14R)-11-(3-(tert-butoxy)prop-1-yn-1-yl)-1-(difluoromethoxy)-6-(methyl-d3)-6,7-dihydro-7,14-methanobenzo[f]benzo[4,5]imidazo[1,2-a][1,4]diazocin-5(14H)-one] | < 0.1 µM | – |
| [2H]C([2H])([2H])N1C(=O)c2cccc(OC(F)F)c2[C@H]2C[C@@H]1c1nc3ccc(C#CC4CCN(C)CC4)cc3n12 [Example 57, (7R,14R)-1-(difluoromethoxy)-6-(methyl-d3)-11-((1-methylpiperidin-4-yl)ethynyl)-6,7-dihydro-7,14-methanobenzo[f]benzo[4,5]imidazo[1,2-a][1,4]diazocin-5(14H)-one] | 0.1 to 1 µM | – |
| [2H]C([2H])([2H])N1C(=O)c2cccc(OC(F)F)c2[C@H]2C[C@@H]1c1nc3ccc(C#C[C@H]4CCCN4)cc3n12 [Example 58, (7R,14R)-1-(difluoromethoxy)-6-(methyl-d3)-11-(((R)-pyrrolidin-2-yl)ethynyl)-6,7-dihydro-7,14-methanobenzo[f]benzo[4,5]imidazo[1,2-a][1,4]diazocin-5(14H)-one] | 10 to 30 µM | – |
| [2H]C([2H])([2H])N1C(=O)c2cccc(OC(F)F)c2[C@H]2C[C@@H]1c1nc3ccc(C#C[C@@H]4CCCN4)cc3n12 [Example 59, (7R,14R)-1-(difluoromethoxy)-6-(methyl-d3)-11-(((S)-pyrrolidin-2-yl)ethynyl)-6,7-dihydro-7,14-methanobenzo[f]benzo[4,5]imidazo[1,2-a][1,4]diazocin-5(14H)-one] | 10 to 30 µM | – |
| [2H]C([2H])([2H])N1C(=O)c2cccc(OC(F)F)c2[C@H]2C[C@@H]1c1nc3ccc(C#CC4CCCNC4)cc3n12 (stereo partly drawn) [Example 60, (7R,14R)-1-(difluoromethoxy)-6-(methyl-d3)-11-(piperidin-3-ylethynyl)-6,7-dihydro-7,14-methanobenzo[f]benzo[4,5]imidazo[1,2-a][1,4]diazocin-5(14H)-one] | < 0.1 µM | – |
| [2H]C([2H])([2H])N1C(=O)c2cccc(OC(F)F)c2[C@H]2C[C@@H]1c1nc3ccc(C#CCN(C)C)cc3n12 [Example 61, (7R,14R)-1-(difluoromethoxy)-11-(3-(dimethylamino)prop-1-yn-1-yl)-6-(methyl-d3)-6,7-dihydro-7,14-methanobenzo[f]benzo[4,5]imidazo[1,2-a][1,4]diazocin-5(14H)-one] | 0.1 to 1 µM | – |
| [2H]C([2H])([2H])N1C(=O)c2cccc(OC(F)F)c2[C@H]2C[C@@H]1c1nc3ccc(C#CCN(CC)CC)cc3n12 [Example 62, (7R,14R)-11-(3-(diethylamino)prop-1-yn-1-yl)-1-(difluoromethoxy)-6-(methyl-d3)-6,7-dihydro-7,14-methanobenzo[f]benzo[4,5]imidazo[1,2-a][1,4]diazocin-5(14H)-one] | < 0.1 µM | – |
